Measured values reported in US11492335B2, “Aryl or heteroaryl triazolone derivatives or salts thereof, or pharmaceutical compositions comprising the same” (YUHAN CORPORATION, priority 2018, dated 2022).
Structures can show the parent of a compound that is named as a salt. Where two headings read alike, the source gives them in different places.

Key:
Type in all cases: biochemical
[1] = molecular target: T1, recombinant human MAO-B (monoamine oxidase-B) (Homo sapiens, UniProt P27338); experiment: Activity on recombinant human MAO-B, Amplex Red method, 1 mM benzylamine substrate; conditions: read-out: Inhibitory Activity (IC50, nM) MAO-B
T1 construct: purchased Sigma-Aldrich
T1 sequence (P27338 1-520): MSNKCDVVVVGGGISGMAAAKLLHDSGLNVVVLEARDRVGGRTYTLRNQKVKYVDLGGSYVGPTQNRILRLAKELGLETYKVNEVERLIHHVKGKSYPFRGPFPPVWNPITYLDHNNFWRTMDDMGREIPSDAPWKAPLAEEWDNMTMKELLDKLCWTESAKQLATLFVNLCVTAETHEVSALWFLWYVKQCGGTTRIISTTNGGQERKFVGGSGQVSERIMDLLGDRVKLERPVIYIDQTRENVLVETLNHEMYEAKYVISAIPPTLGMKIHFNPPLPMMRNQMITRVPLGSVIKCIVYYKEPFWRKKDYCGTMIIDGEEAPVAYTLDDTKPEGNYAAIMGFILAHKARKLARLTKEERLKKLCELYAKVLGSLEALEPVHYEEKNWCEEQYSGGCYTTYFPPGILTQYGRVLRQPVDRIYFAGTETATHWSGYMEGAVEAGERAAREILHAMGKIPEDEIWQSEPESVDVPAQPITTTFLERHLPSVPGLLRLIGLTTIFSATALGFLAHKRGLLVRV
Outline: (§1)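 8-point, 1:3 dose-response, four-parameter logistic IC50 from reduction in fluorescence rate versus DMSO control. HRP/Amplex Red detection of H2O2 (ex 544, em 590 nm) after 30 min, 37 °C compound–enzyme preincubation in pH 7.4 phosphate buffer. MAO-A substrate: 0.5 mM tyramine; MAO-B: 1 mM benzylamine.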

[2] = molecular target: T2, recombinant human DAO (diamine oxidase) (Homo sapiens, UniProt P19801); experiment: Activity on recombinant human DAO, Amplex Red method, 1 mM putrescine substrate; conditions: recombinant human DAO, read-out: Inhibitory Activity (IC50, nM) DAO
T2 construct: purchased R&D systems
T2 sequence (P19801 20-751): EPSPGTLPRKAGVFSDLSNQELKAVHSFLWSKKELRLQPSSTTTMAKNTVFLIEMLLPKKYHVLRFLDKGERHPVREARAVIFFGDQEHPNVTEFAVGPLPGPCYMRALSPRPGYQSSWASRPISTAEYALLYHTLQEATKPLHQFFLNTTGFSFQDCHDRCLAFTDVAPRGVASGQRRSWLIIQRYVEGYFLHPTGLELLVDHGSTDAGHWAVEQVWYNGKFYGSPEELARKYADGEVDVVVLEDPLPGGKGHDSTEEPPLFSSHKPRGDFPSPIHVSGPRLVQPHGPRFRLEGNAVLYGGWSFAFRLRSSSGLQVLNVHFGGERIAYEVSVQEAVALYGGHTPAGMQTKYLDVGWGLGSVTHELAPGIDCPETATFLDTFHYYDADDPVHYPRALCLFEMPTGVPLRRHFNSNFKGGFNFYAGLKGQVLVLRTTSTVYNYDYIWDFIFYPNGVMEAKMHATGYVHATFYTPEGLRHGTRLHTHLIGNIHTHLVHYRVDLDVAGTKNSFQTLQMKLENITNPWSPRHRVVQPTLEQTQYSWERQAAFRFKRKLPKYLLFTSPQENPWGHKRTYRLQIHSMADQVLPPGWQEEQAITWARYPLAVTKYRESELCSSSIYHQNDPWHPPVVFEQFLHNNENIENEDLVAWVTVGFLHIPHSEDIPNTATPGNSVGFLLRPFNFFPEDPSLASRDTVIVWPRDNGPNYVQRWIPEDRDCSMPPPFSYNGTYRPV
Outline: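 Inhibition of recombinant human DAO (diamine oxidase, R&D systems) was assessed with the Amplex Red Hydrogen Peroxide Assay Kit. Hydrogen peroxide produced from 1 mM putrescine was detected through an HRP-coupled reaction that converts Amplex Red into fluorescent resorufin, read at 544 nm excitation and 590 nm emission. IC50 values came from four-parameter logistic fits in GraphPad Prism.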

recombinant human VAP-1 = molecular target: T3, recombinant human VAP-1 (Homo sapiens, UniProt Q16853); experiment: Activity on recombinant human VAP-1, Amplex Red HRP-coupled hydrogen peroxide assay, benzylamine substrate; conditions: recombinant human VAP-1, benzylamine substrate, read-out: Inhibitory Activity (IC50, nM) human VAP-1
T3 construct: purchased R&D systems
T3 sequence (Q16853 1-763): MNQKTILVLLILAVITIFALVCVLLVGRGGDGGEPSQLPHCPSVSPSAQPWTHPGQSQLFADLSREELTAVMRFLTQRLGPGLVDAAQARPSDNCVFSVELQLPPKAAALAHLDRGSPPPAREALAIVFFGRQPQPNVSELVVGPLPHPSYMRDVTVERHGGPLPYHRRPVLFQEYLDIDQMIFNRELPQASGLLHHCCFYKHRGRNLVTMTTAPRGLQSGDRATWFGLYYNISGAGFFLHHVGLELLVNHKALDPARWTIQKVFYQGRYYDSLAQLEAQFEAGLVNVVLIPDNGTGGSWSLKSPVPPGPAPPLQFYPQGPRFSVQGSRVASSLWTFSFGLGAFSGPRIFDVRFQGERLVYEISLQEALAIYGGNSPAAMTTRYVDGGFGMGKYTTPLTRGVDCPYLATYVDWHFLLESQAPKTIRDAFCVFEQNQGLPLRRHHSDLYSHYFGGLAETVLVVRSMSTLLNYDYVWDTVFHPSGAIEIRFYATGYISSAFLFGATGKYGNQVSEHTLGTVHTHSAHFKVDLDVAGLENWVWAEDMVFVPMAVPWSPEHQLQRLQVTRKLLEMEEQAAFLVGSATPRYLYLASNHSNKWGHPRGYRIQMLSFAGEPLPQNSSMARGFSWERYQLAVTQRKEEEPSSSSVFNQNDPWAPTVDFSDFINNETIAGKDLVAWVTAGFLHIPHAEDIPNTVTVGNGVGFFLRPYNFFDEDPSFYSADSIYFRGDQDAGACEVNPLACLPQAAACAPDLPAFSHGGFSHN
Outline: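 Compounds were preincubated with purified enzyme in 50 mM sodium phosphate pH 7.4 at 37 °C for 30 min, then 200 uM Amplex Red, 1 mM benzylamine and 1 U/mL HRP were added. Resorufin fluorescence (ex 544/em 590 nm) was followed over 1-2 h; IC50 came from 4-parameter fits of signal-rate inhibition.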

[3] = molecular target: T4, recombinant human MAO-A (monoamine oxidase-A) (Homo sapiens, UniProt P21397); experiment: Activity on recombinant human MAO-A, Amplex Red method, 0.5 mM tyramine substrate; conditions: read-out: Inhibitory Activity (IC50, nM) MAO-A
T4 construct: purchased Sigma-Aldrich
T4 sequence (P21397 1-527): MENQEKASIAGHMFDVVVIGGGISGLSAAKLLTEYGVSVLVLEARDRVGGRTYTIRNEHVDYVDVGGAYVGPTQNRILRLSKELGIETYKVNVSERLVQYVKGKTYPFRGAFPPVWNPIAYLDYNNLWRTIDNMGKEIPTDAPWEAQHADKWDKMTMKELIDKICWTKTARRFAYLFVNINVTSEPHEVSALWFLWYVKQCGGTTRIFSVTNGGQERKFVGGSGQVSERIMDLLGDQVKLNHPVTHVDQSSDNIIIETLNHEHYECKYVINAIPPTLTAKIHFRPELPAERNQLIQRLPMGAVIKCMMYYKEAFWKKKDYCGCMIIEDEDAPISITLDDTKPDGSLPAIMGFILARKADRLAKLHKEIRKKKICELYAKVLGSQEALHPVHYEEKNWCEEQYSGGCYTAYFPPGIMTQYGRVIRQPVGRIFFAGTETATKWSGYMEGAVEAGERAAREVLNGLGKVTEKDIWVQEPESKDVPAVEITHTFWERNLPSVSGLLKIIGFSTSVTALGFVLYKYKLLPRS
Outline: as §1

[4] = 1 mM putrescine, * = between 10 and 100 nM, ** = between 300 and 1000 nM

Row | Compound | IC50 ([1]; 1 mM benzylamine) [nM] | IC50 [2, 4] [nM] | IC50 (recombinant human VAP-1; 30 min preincubation at 37° C.) [nM] | IC50 ([3]; 0.5 mM tyramine) [nM] | IC50 ([1]; 1 mM benzylamine substrate) [nM] | IC50 ([2]; 1 mM putrescine substrate) [nM] | IC50 (recombinant human VAP-1) [nM] | IC50 ([3]; 0.5 mM tyramine substrate) [nM]
1 | NC/C(=C\F)Cn1ncn(-c2ccc(Br)cc2)c1=O [Example 2, 2-[(2E)-2-(aminomethyl)-3-fluoroprop-2-en-1-yl]-4-(4-bromophenyl)-2,4-dihydro-3H-1,2,4-triazol-3-one] | 86 | 120 | 0.9 | 2900 | – | – | – | –
2 | CC(=O)Nc1nc(Cc2ccc(-n3cnn(C/C(=C/F)CN)c3=O)cc2)cs1 [Example 235, hydrochloride] | – | – | – | – | 2580 | < 100 | 0.43 | > 100000
3 | Cn1nc(C(F)(F)F)cc1-c1cccc(-n2cnn(C/C(=C/F)CN)c2=O)n1 [Example 192, 2-[(2E)-2-(aminomethyl)-3-fluoroprop-2-en-1-yl]-4-{6-[1-methyl-3-(trifluoromethyl)-1H-pyrazol-5-yl]pyridin-2-yl}-2,4-dihydro-3H-1,2,4-triazol-3-one hydrochloride] | – | – | – | – | 250 | 0.4 | 1.4 | > 100000
4 | NC/C(=C\F)Cn1ncn(-c2cccc(C#Cc3ccc(N4CCOCC4)nc3)n2)c1=O [Example 249, 2-[(E)-2-(aminomethyl)-3-fluoro-allyl]-4-[6-[2-(6-morpholino-3-pyridyl)ethynyl]-2-pyridyl]-1,2,4-triazol-3-one] | – | – | – | – | 2000 | 8 | 0.4 | > 100000
5 | NC/C(=C/F)Cn1ncn(-c2ccc(OCc3ccccc3)cc2)c1=O [Example 7, 2-[(2Z)-2-(aminomethyl)-3-fluoroprop-2-en-1-yl]-4-[4-(benzyloxy)phenyl]-2,4-dihydro-3H-1,2,4-triazol-3-one] | 8 | 47 | 0.88 | 2100 | – | – | – | –
6 | NC/C(=C\F)Cn1ncn(-c2cccc(/C=C/c3cnc4c(c3)NC(=O)CO4)n2)c1=O [Example 241, 7-[(E)-2-[6-[1-[(E)-2-(aminomethyl)-3-fluoro-allyl]-5-oxo-1,2,4-triazol-4-yl]-2-pyridyl]vinyl]-1H-pyrido[2,3-b][1,4]oxazin-2-one hydrochloride] | – | – | – | – | > 10000 | 1 | 0.5 | > 100000
7 | NC/C(=C\F)Cn1ncn(-c2cccc(-c3cccc4[nH]c(=O)ccc34)n2)c1=O [Example 201, 5-(6-{1-[(2E)-2-(aminomethyl)-3-fluoroprop-2-en-1-yl]-5-oxo-1,5-dihydro-4H-1,2,4-triazol-4-yl}pyridin-2-yl)quinolin-2(1H)-one hydrochloride] | – | – | – | – | > 10000 | 17 | 1.3 | > 100000
8 | NC/C(=C\F)Cn1ncn(-c2cnc(Br)cn2)c1=O [Example 38, 2-[(2E)-2-(aminomethyl)-3-fluoroprop-2-en-1-yl]-4-(5-bromopyrazin-2-yl)-2,4-dihydro-3H-1,2,4-triazol-3-one] | 112 | < 100 | 4.4 | 19600 | – | – | – | –
9 | NC/C(=C\F)Cn1ncn(-c2cc(-c3ccc4sc(N)nc4c3)ccn2)c1=O [Example 173, 4-[4-(2-amino-1,3-benzothiazol-5-yl)pyridin-2-yl]-2-[(2E)-2-(aminomethyl)-3-fluoroprop-2-en-1-yl]-2,4-dihydro-3H-1,2,4-triazol-3-one] | – | – | – | – | > 10000 | 5.9 | 0.41 | > 100000
10 | NC/C(=C\F)Cn1ncn(-c2ncc(-c3ccc4sc(N)nc4c3)cc2F)c1=O [Example 164, 4-[5-(2-amino-1,3-benzothiazol-5-yl)-3-fluoropyridin-2-yl]-2-[(2E)-2-(aminomethyl)-3-fluoroprop-2-en-1-yl]-2,4-dihydro-3H-1,2,4-triazol-3-one hydrochloride] | – | – | – | – | 183 | 1.4 | 0.25 | > 100000
11 | NC/C(=C\F)Cn1ncn(-c2cccc(C#Cc3cnc4c(c3)NC(=O)CO4)n2)c1=O [Example 258, 7-[2-[6-[1-[(E)-2-(aminomethyl)-3-fluoro-allyl]-5-oxo-1,2,4-triazol-4-yl]-2-pyridyl]ethynyl]-1H-pyrido[2,3-b][1,4]oxazin-2-one] | – | – | – | – | 59000 | 1.3 | 0.2 | > 100000
12 | NC/C(=C\F)Cn1ncn(-c2ncc(-c3ccc4c(c3)OCO4)cc2F)c1=O [Example 162, 2-[(2E)-2-(aminomethyl)-3-fluoroprop-2-en-1-yl]-4-[5-(1,3-benzodioxol-5-yl)-3-fluoropyridin-2-yl]-2,4-dihydro-3H-1,2,4-triazol-3-one hydrochloride] | – | – | – | – | 17 | 1.6 | 1.6 | 3140
